From the supplement of paper PMC10920090

Assays:
MDA-MB-231 [1] = assay: drug sensitivity score (DSS), cytotoxicity CellTox Green; higher = more cytotoxic; extreme values may be limits of the assay; conditions: 72 h
MDA-MB-231 [2] = assay: drug sensitivity score (DSS), cell viability CellTiter-Glo; higher = more sensitive; extreme values may be limits of the assay; conditions: 72 h
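Wherever drug sensitivity score (DSS), cytotoxicity CellTox Green is given: DSS summarises each dose–response curve by combining IC50, EC50, maximal inhibition and efficacy across drug concentrations.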

COc1nc(N)nc2c1ncn2[C@@H]1O[C@H](CO)[C@@H](O)[C@@H]1O [Nelarabine] gave a drug sensitivity score (MDA-MB-231 [1]; shRNA: shPPFIA1_1) of 0 DSS, a drug sensitivity score (MDA-MB-231 [1]; shRNA: shScramble) of 0 DSS and a drug sensitivity score (MDA-MB-231 [2]; shRNA: shPPFIA1_1) of 0 DSS. The drug sensitivity score (MDA-MB-231 [2]; shRNA: shScramble) was 0 DSS.
CCOc1cc2ncc(C#N)c(Nc3ccc(OCc4ccccn4)c(Cl)c3)c2cc1NC(=O)/C=C/CN(C)C [Neratinib] showed a drug sensitivity score (MDA-MB-231 [1]; shRNA: shPPFIA1_1) of 0.2 DSS, a drug sensitivity score (MDA-MB-231 [1]; shRNA: shScramble) of 0 DSS and a drug sensitivity score (MDA-MB-231 [2]; shRNA: shPPFIA1_1) of 6.3 DSS. It also gave a drug sensitivity score (MDA-MB-231 [2]; shRNA: shScramble) of 8.3 DSS.
Cc1cn(-c2cc(NC(=O)c3ccc(C)c(Nc4nccc(-c5cccnc5)n4)c3)cc(C(F)(F)F)c2)cn1 [Nilotinib] gave a drug sensitivity score (MDA-MB-231 [1]; shRNA: shPPFIA1_1) of 4.5 DSS, a drug sensitivity score (MDA-MB-231 [1]; shRNA: shScramble) of 0.2 DSS and a drug sensitivity score (MDA-MB-231 [2]; shRNA: shPPFIA1_1) of 0 DSS. For the same compound, the drug sensitivity score (MDA-MB-231 [2]; shRNA: shScramble) was 3.8 DSS.
Compound CC1(C)NC(=O)N(c2ccc([N+](=O)[O-])c(C(F)(F)F)c2)C1=O [Nilutamide] has a drug sensitivity score (MDA-MB-231 [1]; shRNA: shPPFIA1_1) of 0 DSS, a drug sensitivity score (MDA-MB-231 [1]; shRNA: shScramble) of 0 DSS and a drug sensitivity score (MDA-MB-231 [2]; shRNA: shPPFIA1_1) of 0 DSS. For the same compound, the drug sensitivity score (MDA-MB-231 [2]; shRNA: shScramble) was 0 DSS.
COC(=O)c1ccc2c(c1)NC(=O)/C2=C(\Nc1ccc(N(C)C(=O)CN2CCN(C)CC2)cc1)c1ccccc1 [Nintedanib] showed a drug sensitivity score (MDA-MB-231 [1]; shRNA: shPPFIA1_1) of 1.1 DSS, a drug sensitivity score (MDA-MB-231 [1]; shRNA: shScramble) of 6.7 DSS and a drug sensitivity score (MDA-MB-231 [2]; shRNA: shPPFIA1_1) of 0 DSS. The drug sensitivity score (MDA-MB-231 [2]; shRNA: shScramble) was 8.1 DSS.
NC(=O)c1cccc2cn(-c3ccc([C@@H]4CCCNC4)cc3)nc12 [Niraparib] was tested, and the drug sensitivity score (MDA-MB-231 [1]; shRNA: shPPFIA1_1) was 0 DSS, the drug sensitivity score (MDA-MB-231 [1]; shRNA: shScramble) was 0 DSS and the drug sensitivity score (MDA-MB-231 [2]; shRNA: shPPFIA1_1) was 2.8 DSS. It also gave a drug sensitivity score (MDA-MB-231 [2]; shRNA: shScramble) of 1.9 DSS.
In the case of COc1ccc(C2=N[C@@H](c3ccc(Cl)cc3)[C@@H](c3ccc(Cl)cc3)N2C(=O)N2CCNC(=O)C2)c(OC(C)C)c1 [Nutlin-3], the drug sensitivity score (MDA-MB-231 [1]; shRNA: shPPFIA1_1) is reported as 0 DSS, the drug sensitivity score (MDA-MB-231 [1]; shRNA: shScramble) is reported as 0 DSS and the drug sensitivity score (MDA-MB-231 [2]; shRNA: shPPFIA1_1) is reported as 0 DSS. It also gave a drug sensitivity score (MDA-MB-231 [2]; shRNA: shScramble) of 0 DSS.
For COc1cccc2cc(-c3nc([C@H]4CC[C@H](C(=O)O)CC4)n4ncnc(N)c34)[nH]c12 [OSI-027], the drug sensitivity score (MDA-MB-231 [1]; shRNA: shPPFIA1_1) was 0 DSS, the drug sensitivity score (MDA-MB-231 [1]; shRNA: shScramble) was 0 DSS and the drug sensitivity score (MDA-MB-231 [2]; shRNA: shPPFIA1_1) was 0 DSS. For the same compound, the drug sensitivity score (MDA-MB-231 [2]; shRNA: shScramble) was 2.9 DSS.
In the case of O=C(Nc1ccc(OC(F)(F)F)cc1)c1sccc1NCc1ccnc2ccccc12 [OSI-930], the drug sensitivity score (MDA-MB-231 [1]; shRNA: shPPFIA1_1) is reported as 0 DSS, the drug sensitivity score (MDA-MB-231 [1]; shRNA: shScramble) is reported as 0.9 DSS and the drug sensitivity score (MDA-MB-231 [2]; shRNA: shPPFIA1_1) is reported as 4.5 DSS. It also gave a drug sensitivity score (MDA-MB-231 [2]; shRNA: shScramble) of 8 DSS.
With CC(=O)c1cnc2ccc(-c3cc(Cl)c(O)c(Cl)c3)nc2c1N[C@H]1CC[C@H](CN(C)C)CC1 [OTSSP167] the drug sensitivity score (MDA-MB-231 [1]; shRNA: shPPFIA1_1) was 0 DSS, the drug sensitivity score (MDA-MB-231 [1]; shRNA: shScramble) was 0.2 DSS and the drug sensitivity score (MDA-MB-231 [2]; shRNA: shPPFIA1_1) was 22.4 DSS. The drug sensitivity score (MDA-MB-231 [2]; shRNA: shScramble) was 9.1 DSS.
Compound Cc1sc2c(c1C)C(c1ccc(Cl)cc1)=N[C@@H](CC(=O)Nc1ccc(O)cc1)c1nnc(C)n1-2 [OTX015] has a drug sensitivity score (MDA-MB-231 [1]; shRNA: shPPFIA1_1) of 0 DSS, a drug sensitivity score (MDA-MB-231 [1]; shRNA: shScramble) of 0 DSS and a drug sensitivity score (MDA-MB-231 [2]; shRNA: shPPFIA1_1) of 0 DSS. The drug sensitivity score (MDA-MB-231 [2]; shRNA: shScramble) was 10.2 DSS.
Work on COC1=CC(c2cc3ccccc3[nH]2)=N/C1=C\c1[nH]c(C)cc1C [Obatoclax] yielded a drug sensitivity score (MDA-MB-231 [1]; shRNA: shPPFIA1_1) of 0 DSS, a drug sensitivity score (MDA-MB-231 [1]; shRNA: shScramble) of 0 DSS and a drug sensitivity score (MDA-MB-231 [2]; shRNA: shPPFIA1_1) of 0 DSS. For the same compound, the drug sensitivity score (MDA-MB-231 [2]; shRNA: shScramble) was 0 DSS.
In the case of O=C(c1cc(Cc2n[nH]c(=O)c3ccccc23)ccc1F)N1CCN(C(=O)C2CC2)CC1 [Olaparib], the drug sensitivity score (MDA-MB-231 [1]; shRNA: shPPFIA1_1) is reported as 0 DSS, the drug sensitivity score (MDA-MB-231 [1]; shRNA: shScramble) is reported as 0 DSS and the drug sensitivity score (MDA-MB-231 [2]; shRNA: shPPFIA1_1) is reported as 0.1 DSS. For the same compound, the drug sensitivity score (MDA-MB-231 [2]; shRNA: shScramble) was 0.8 DSS.
COC(=O)C[C@](O)(CCCC(C)(C)O)C(=O)O[C@@H]1C(OC)=C[C@]23CCCN2CCc2cc4c(cc2[C@H]13)OCO4 [Omacetaxine] gave a drug sensitivity score (MDA-MB-231 [1]; shRNA: shPPFIA1_1) of 11.8 DSS, a drug sensitivity score (MDA-MB-231 [1]; shRNA: shScramble) of 18.4 DSS and a drug sensitivity score (MDA-MB-231 [2]; shRNA: shPPFIA1_1) of 11.2 DSS. The drug sensitivity score (MDA-MB-231 [2]; shRNA: shScramble) was 22.9 DSS.
With COc1ncc(-c2ccc3nccc(-c4ccnnc4)c3c2)cc1NS(=O)(=O)c1ccc(F)cc1F [Omipalisib] the drug sensitivity score (MDA-MB-231 [1]; shRNA: shPPFIA1_1) was 0 DSS, the drug sensitivity score (MDA-MB-231 [1]; shRNA: shScramble) was 0 DSS and the drug sensitivity score (MDA-MB-231 [2]; shRNA: shPPFIA1_1) was 0 DSS. It also gave a drug sensitivity score (MDA-MB-231 [2]; shRNA: shScramble) of 10.9 DSS.
Work on CC(C)c1cc(C(=O)N2Cc3ccc(CN4CCN(C)CC4)cc3C2)c(O)cc1O [Onalespib] yielded a drug sensitivity score (MDA-MB-231 [1]; shRNA: shPPFIA1_1) of 0 DSS, a drug sensitivity score (MDA-MB-231 [1]; shRNA: shScramble) of 2.6 DSS and a drug sensitivity score (MDA-MB-231 [2]; shRNA: shPPFIA1_1) of 13.6 DSS. For the same compound, the drug sensitivity score (MDA-MB-231 [2]; shRNA: shScramble) was 10.6 DSS.
